Values quoted from earlier work, collected in patent US8362253B2, “Solid forms of N-[2,4-bis(1,1-dimethylethyl)-5-hydroxyphenyl]-1,4-dihydro-4-oxoquinoline-3-carboxamide” (Vertex Pharmaceutical Incorporated, priority 2007, dated 2013).

System: cystic fibrosis transmembrane conductance regulator (CFTR) protein
Conditions: cells from patients with CF, CFTR present on the cell surface; background statement

## CC(C)(C)c1cc(C(C)(C)C)c(NC(=O)c2c[nH]c3ccccc3c2=O)cc1O [Compound 1, N-[2,4-bis(1,1-dimethylethyl)-5-hydroxyphenyl]-1,4-dihydro-4-oxoquinoline-3-carboxamide]
  Function of defective CFTR channels: restored the function of defective CFTR channels
